In brackets after ≈: the same amount, converted by molar mass.
Assays:
Assay in all cases: in vitro antifungal activity, broth and agar testing techniques
Type in all cases: cell-based
[1] = system: Candida albicans; conditions: for inhibitory activity: in vitro; for MIC: one range stated jointly for Examples 5, 6 and 10 and the three fungi, read-out: minimum inhibitory concentration MIC
Description: (§1) The compounds of this invention are useful as antifungal agents.

[2] = system: Epidermophyton floccosum
Description: as §1

[3] = system: Trichophyton mentagrophytes
Description: as §1

[4] = system: Trichophyton schoenleinii
Description: as §1

[5] = system: Trichophyton tonsurans
Description: as §1

[6] = system: Aspergilius fumigatus; conditions: for activity: in vitro; for MIC: one range stated jointly for Examples 5, 6 and 10 and the three fungi, read-out: minimum inhibitory concentration MIC
Description: as §1

[7] = system: Trichophyton rubrum; conditions: for activity: in vitro; for MIC: one range stated jointly for Examples 5, 6 and 10 and the three fungi, read-out: minimum inhibitory concentration MIC
Description: as §1

Row | SMILES | inhibitory activity [1] | inhibitory activity [2] | inhibitory activity [3] | inhibitory activity [4] | inhibitory activity [5] | activity [6] | MIC [6] | MIC [1] | activity [7] | MIC [7]
1 | CN1OC(c2ccc(Cl)cc2)CC1(Cn1ccnc1)c1ccco1 (single isomer, unassigned) [Example 1, 5-(4-Chlorophenyl)-3-(2-furanyl)-3-(1H-imidazol-1-ylmethyl) -2-methylisoxazolidine] | good to moderate | good to moderate | good to moderate | good to moderate | good to moderate |  |  |  |  | 
2 | CN1OC(COc2ccc(Cl)cc2)CC1(Cn1ccnc1)c1ccco1 (single isomer, unassigned) [Example 3, 5-(4-Chlorophenoxymethyl)-3-(2-furanyl)-3-(1H-imidazol-1-ylmethyl)-2-methylisoxazolidine] | good to moderate | good to moderate | good to moderate | good to moderate | good to moderate |  |  |  |  | 
3 | CN1OC(c2ccccc2)CC1(Cn1ccnc1)c1cccs1 (single isomer, unassigned) [Example 5, 3-(1H-Imidazol-1-ylmethyl)-2-methyl-5-phenyl-3-(2-thienyl)isoxazolidine] | good to moderate |  |  |  |  | good to moderate | 0.2 to 70 mg/L (≈ 0.615 to 215 µM) | 0.2 to 70 mg/L (≈ 0.615 to 215 µM) | good to moderate | 0.2 to 70 mg/L (≈ 0.615 to 215 µM)
4 | CN1OC(c2ccc(Cl)cc2)CC1(Cn1ccnc1)c1cccs1 (single isomer, unassigned) [Example 6, 5-(4-Chlorophenyl)-3-(1H-imidazol-1-ylmethyl)-2-methyl-3-(2-thienyl)isoxazolidine] | good to moderate |  |  |  |  | good to moderate | 0.2 to 70 mg/L (≈ 0.556 to 195 µM) | 0.2 to 70 mg/L (≈ 0.556 to 195 µM) | good to moderate | 0.2 to 70 mg/L (≈ 0.556 to 195 µM)
5 | Cc1ccc(SCC2CC(Cn3ccnc3)(c3cccs3)N(C)O2)cc1 (single isomer, unassigned) [Example 10, 3-(1H-Imidazol-1-ylmethyl)-2-methyl-5-[[(4-methylphenyl)thio]methyl]-3-(2-thienyl)isoxazolidine] | good to moderate |  |  |  |  | good to moderate | 0.2 to 70 mg/L (≈ 0.519 to 182 µM) | 0.2 to 70 mg/L (≈ 0.519 to 182 µM) | good to moderate | 0.2 to 70 mg/L (≈ 0.519 to 182 µM)
